Test [1] concerns the target Adenosine receptor A1 (Mesocricetus auratus). The test is described as follows: Agonist activity at adenosine A1 receptor assessed as inhibition of isoproterenol-stimulated cAMP accumulation in DDT1MF-2 cells. (In general: cAMP levels reflect the balance of adenylyl cyclase and phosphodiesterase activity.)
Test [2] has as its system Adenosine receptor A1 (Mesocricetus auratus). The test is described as follows: Ratio of Ki to IC50 for adenosine A1 receptor.
Test [3] addresses Adenosine receptor A1 (Mesocricetus auratus). Kind of test: Displacement of [3H]CPX from adenosine A1 receptor in DDT1MF-2 cells. In general terms: Displacement assays read how much labelled ligand stays bound in the presence of the test substance.
The subject of test [4] is Adenosine receptor A1 (Mesocricetus auratus). The test is described as follows: Intrinsic activity at adenosine A1 receptor assessed as maximal inhibition of isoproterenol-stimulated cAMP accumulation in DDT1MF-2 cells relative to CPA.

The structures appear in SMILES notation. Bounds are passed on as bounds.

Consider `CCNC(=O)[C@H]1O[C@@H](n2cnc3c(N[C@H]4C[C@@H]5C[C@@H]4C4SC45)ncnc32)[C@H](O)[C@@H]1O` (stereo partly drawn), for which the IC50 (usually the concentration that gives 50% inhibition) in test [1] was determined as 0.12 nM. Also, in test [2], the Ratio is 1.3. Further, the Ki (as a rule, the dissociation constant of the complex between target and ligand, obtained from inhibition or displacement) in test [3] is 0.9 nM. Moreover, the Intrinsic activity in test [4] was 0.98.

With `CCSC[C@H]1O[C@@H](n2cnc3c(NC4CCCC4)ncnc32)[C@H](O)[C@@H]1O`, the IC50 in test [1] amounted to 21 nM. The Ki in test [3] was 173 nM. Further, the Intrinsic activity in test [4] is 1.02.

As to `CCCNC[C@H]1O[C@@H](n2cnc3c(N[C@H]4C[C@H]5CC[C@H]4C5)ncnc32)[C@H](O)[C@@H]1O`, the IC50 in test [1] amounted to 4950 nM. Besides, the Ratio in test [2] was 1.3. This molecule also displayed a Ki in test [3] of 7200 nM. Also, the Intrinsic activity in test [4] was 0.91.

As for `O[C@@H]1[C@H](O)[C@@H](CS)O[C@H]1n1cnc2c(N[C@H]3C[C@H]4CC[C@H]3C4)ncnc21`, in test [1], the IC50 was 224 nM. Besides, the Ratio in test [2] stood at 1.3. Further, in test [3], the Ki was 283 nM. In addition, the Intrinsic activity in test [4] turned out to be 1.

Take `CNC[C@H]1O[C@@H](n2cnc3c(N[C@H]4C[C@H]5CC[C@H]4C5)ncnc32)[C@H](O)[C@@H]1O`: the IC50 in test [1] was 867 nM. In addition, the Ratio in test [2] worked out at 1.3. For the same molecule, in test [3], the Ki was over 10000 nM. The Intrinsic activity in test [4] came to 0.83.

`CNC(=O)O[C@H]1O[C@@H](n2cnc3c(N[C@H]4C[C@@H]5C[C@@H]4C4SC45)ncnc32)[C@H](O)[C@@H]1O` (stereo partly drawn): in test [1], the IC50 amounted to 410 nM. The Ratio in test [2] stood at 1.3. In test [3], this molecule showed a Ki of 590 nM. The Intrinsic activity in test [4] worked out at 1.03.

With `CCSC[C@H]1O[C@@H](n2cnc3c(N[C@H]4C[C@H]5CC[C@H]4C5)ncnc32)[C@H](O)[C@@H]1O`, the IC50 in test [1] turned out to be 28 nM. For the same molecule, in test [2], the Ratio was determined as 1.3. In test [3], this molecule yielded a Ki of 122 nM. The Intrinsic activity in test [4] stood at 1.04.

Consider `NC[C@H]1O[C@@H](n2cnc3c(N[C@H]4C[C@H]5CC[C@H]4C5)ncnc32)[C@H](O)[C@@H]1O`, for which the IC50 in test [1] is 351 nM. In test [2], the Ratio was determined as 1.3. This molecule also registered a Ki in test [3] of 3930 nM. Moreover, the Intrinsic activity in test [4] worked out at 0.92.

Turning to `C[Se]C[C@H]1O[C@@H](n2cnc3c(N[C@H]4C[C@@H]5C[C@@H]4C4SC45)ncnc32)[C@H](O)[C@@H]1O` (stereo partly drawn), the IC50 in test [1] was 12 nM. The Ratio in test [2] came to 1.3. Also, affinity in test [3] was put at a Ki of 30 nM. Besides, the Intrinsic activity in test [4] came to 0.96.

`CC(=O)NC[C@H]1O[C@@H](n2cnc3c(N[C@H]4C[C@H]5CC[C@H]4C5)ncnc32)[C@H](O)[C@@H]1O`: the IC50 in test [1] turned out to be 605 nM. Also, the Ratio in test [2] is 1.3. Also, in test [3], the Ki was 5860 nM. For the same molecule, the Intrinsic activity in test [4] amounted to 0.97.

In the case of `O[C@@H]1[C@H](O)[C@@H](CF)O[C@H]1n1cnc2c(N[C@H]3C[C@H]4CC[C@H]3C4)ncnc21`, in test [1], the IC50 worked out at 7 nM. Besides, in test [2], the Ratio stood at 1.3. Further, the affinity in test [3] corresponds to a Ki of 17 nM. Further, the Intrinsic activity in test [4] stood at 0.97.

For the origin of these results see ChEMBL document CHEMBL1144002, “N6-substituted C5'-modified adenosines as A1 adenosine receptor agonists” (Bioorg Med Chem, 2008).
